Source: patent publication US6403343B2, “Method of producing a taxane-type diterpene and a method of obtaining cultured cells which produce the taxane-type dilterpene at a high rate” (Mitsui Chemicals, Inc., priority 1993, dated 2002)
Read-outs that look alike come from different tables or passages of the source.

Columns and labels:
[1] = system: cultured cells of Taxus baccata LINN; assay: Growth rate and taxane yield, 21-day shake culture of Taxus baccata cells with heavy metal compound, amine, antiethylene agent or Ethrel added; assay type: cell-based
[2] = system: cultured cells of Taxus baccata LINN; details: 3 mM in fresh medium, continuous culture
Description: The amount of the taxol contained in the cells and the medium were measured in the same manner as that used in Example 1.

[3] = system: cultured cells of Taxus baccata LINN; details: 2 mM in medium
Description: The procedure of Example 78 was carried out except that the nutrition source was not added midway.

[4] = 2×10^−4 M added 5 times at 4 days' intervals from day 0, total 10^−3 M
[5] = 10^−1 M added at start, 21 days
[6] = 10^−2 M added at start, 21 days
[7] = 10^−3 M added at start, 21 days
[8] = 10^−3 M added on 7th day, 14 more days
[9] = 10^−3 M added on 14th day, 7 more days
[10] = 10^−3 M added on 18th day, 3 more days
[11] = 10^−3 M at start + methyl jasmonate 10^−4 M on 14th day
[12] = 10^−3 M at start + methyl jasmonate 10^−4 M on 14th day, oxygen 10% in the gas phase
[13] = 10^−3 M at start, oxygen 10% in the gas phase
[14] = 10^−4 M added at start, 21 days
[15] = 10^−5 M added at start, 21 days
[16] = 10^−6 M added at start, 21 days
[17] = 10^−7 M added at start, 21 days
[18] = 10^−8 M added at start, 21 days
[19] = 10^−9 M added at start, 21 days
[20] = nutrition source added continuously day 2-14, 21 days
[21] = nutrition source not added midway, 21 days

O=S([O-])([O-])=S.[Ag+].[Ag+] [silver thiosulfate, [Ag(S2O3)2]^3−]
growth rate ([1]; 1 M added at start, 21 days): 1.2 times | total yield of taxane ([1]; 1 M added at start, 21 days): 0.64 mg/L | yield of baccatin III ([1]; 1 M added at start, 21 days): 0.08 mg/L | yield of cephalomannine ([1]; 1 M added at start, 21 days): 0.36 mg/L | yield of taxol ([1]; 1 M added at start, 21 days): 0.20 mg/L | growth rate [1, 4]: 2.4 times | total yield of taxane [1, 4]: 32.36 mg/L | yield of baccatin III [1, 4]: 4.15 mg/L | yield of cephalomannine [1, 4]: 7.27 mg/L | yield of taxol [1, 4]: 20.94 mg/L | growth rate [1, 5]: 1.9 times | total yield of taxane [1, 5]: 3.78 mg/L | yield of baccatin III [1, 5]: 0.26 mg/L | yield of cephalomannine [1, 5]: 2.15 mg/L | yield of taxol [1, 5]: 1.37 mg/L | growth rate [1, 6]: 2.3 times | total yield of taxane [1, 6]: 12.02 mg/L | yield of baccatin III [1, 6]: 0.72 mg/L | yield of cephalomannine [1, 6]: 5.50 mg/L | yield of taxol [1, 6]: 5.80 mg/L | growth rate [1, 7]: 2.7 times | total yield of taxane [1, 7]: 58.99 mg/L | yield of baccatin III [1, 7]: 27.90 mg/L | yield of cephalomannine [1, 7]: 5.96 mg/L | yield of taxol [1, 7]: 25.13 mg/L | growth rate [1, 8]: 2.2 times | total yield of taxane [1, 8]: 27.21 mg/L | yield of baccatin III [1, 8]: 11.71 mg/L | yield of cephalomannine [1, 8]: 4.86 mg/L | yield of taxol [1, 8]: 10.64 mg/L | growth rate [1, 9]: 2.5 times | total yield of taxane [1, 9]: 10.59 mg/L | yield of baccatin III [1, 9]: 2.29 mg/L | yield of cephalomannine [1, 9]: 3.83 mg/L | yield of taxol [1, 9]: 4.47 mg/L | growth rate [1, 10]: 2.9 times | total yield of taxane [1, 10]: 3.27 mg/L | yield of baccatin III [1, 10]: 0.28 mg/L | yield of cephalomannine [1, 10]: 1.44 mg/L | yield of taxol [1, 10]: 1.55 mg/L | growth rate [1, 11]: 2.7 times | total yield of taxane [1, 11]: 71.32 mg/L | yield of baccatin III [1, 11]: 25.14 mg/L | yield of cephalomannine [1, 11]: 12.57 mg/L | yield of taxol [1, 11]: 33.61 mg/L | growth rate [1, 12]: 2.7 times | total yield of taxane [1, 12]: 74.07 mg/L | yield of baccatin III [1, 12]: 27.00 mg/L | yield of cephalomannine [1, 12]: 12.34 mg/L | yield of taxol [1, 12]: 34.73 mg/L | growth rate [1, 13]: 2.7 times | total yield of taxane [1, 13]: 59.34 mg/L | yield of baccatin III [1, 13]: 22.81 mg/L | yield of cephalomannine [1, 13]: 9.08 mg/L | yield of taxol [1, 13]: 27.45 mg/L | growth rate [1, 14]: 2.7 times | total yield of taxane [1, 14]: 27.26 mg/L | yield of baccatin III [1, 14]: 7.62 mg/L | yield of cephalomannine [1, 14]: 5.11 mg/L | yield of taxol [1, 14]: 14.53 mg/L | growth rate [1, 15]: 2.7 times | total yield of taxane [1, 15]: 13.18 mg/L | yield of baccatin III [1, 15]: 1.13 mg/L | yield of cephalomannine [1, 15]: 4.10 mg/L | yield of taxol [1, 15]: 7.95 mg/L | growth rate [1, 16]: 2.6 times | total yield of taxane [1, 16]: 5.72 mg/L | yield of baccatin III [1, 16]: 1.06 mg/L | yield of cephalomannine [1, 16]: 2.86 mg/L | yield of taxol [1, 16]: 1.80 mg/L | growth rate [1, 17]: 2.7 times | total yield of taxane [1, 17]: 4.38 mg/L | yield of baccatin III [1, 17]: 0.34 mg/L | yield of cephalomannine [1, 17]: 2.47 mg/L | yield of taxol [1, 17]: 1.57 mg/L | growth rate [1, 18]: 2.8 times | total yield of taxane [1, 18]: 2.02 mg/L | yield of baccatin III [1, 18]: 0.29 mg/L | yield of cephalomannine [1, 18]: 0.97 mg/L | yield of taxol [1, 18]: 0.76 mg/L | growth rate [1, 19]: 2.7 times | total yield of taxane [1, 19]: 1.09 mg/L | yield of baccatin III [1, 19]: 0.20 mg/L | yield of cephalomannine [1, 19]: 0.56 mg/L | yield of taxol [1, 19]: 0.33 mg/L | productivity of taxol ([2]; stationary state): 8.8 mg/L/day | taxol produced ([2]; stationary state of 60 days): 525 mg | yield of cells [3, 20]: 38 g dried weight/l | yield of taxol from cells [3, 20]: 31 mg/L | yield of taxol from medium [3, 20]: 89 mg/L | yield of taxol total [3, 20]: 125 mg/L | yield of cells [3, 21]: 22 g dried weight/l | yield of taxol from cells [3, 21]: 33 mg/L | yield of taxol from medium [3, 21]: 27 mg/L | yield of taxol total [3, 21]: 60 mg/L
